# Reference: patent US20080181875A1, “USE OF CYCLOPHILIN AS ANTIOXIDANT AND PREVENTION OF CYCLOSPORIN A-INDUCED TOXICITY IN CELL TRANSPLANTATION BY OVEREXPRESSION OF CYCLOPHILIN” (priority 2002, published 2008)
# Counter-ions that a name gives are not always drawn.
# B1: catalase: antioxidant enzyme purchased from Sigma (protein, UniProt P00432 2-527, looked up)
# Catalase: ADNRDPASDQMKHWKEQRAAQKPDVLTTGGGNPVGDKLNSLTVGPRGPLLVQDVVFTDEMAHFDRERIPERVVHAKGAGAFGYFEVTHDITRYSKAKVFEHIGKRTPIAVRFSTVAGESGSADTVRDPRGFAVKFYTEDGNWDLVGNNTPIFFIRDALLFPSFIHSQKRNPQTHLKDPDMVWDFWSLRPESLHQVSFLFSDRGIPDGHRHMNGYGSHTFKLVNANGEAVYCKFHYKTDQGIKNLSVEDAARLAHEDPDYGLRDLFNAIATGNYPSWTLYIQVMTFSEAEIFPFNPFDLTKVWPHGDYPLIPVGKLVLNRNPVNYFAEVEQLAFDPSNMPPGIEPSPDKMLQGRLFAYPDTHRHRLGPNYLQIPVNCPYRARVANYQRDGPMCMMDNQGGAPNYYPNSFSAPEHQPSALEHRTHFSGDVQRFNSANDDNVTQVRTFYLKVLNEEQRKRLCENIAGHLKDAQLFIQKKAVKNFSDVHPEYGSRIQALLDKYNEEKPKNAVHTYVQHGSHLSAREKANL
# What was measured:
# H9c2 myoblasts [1] = assay: Apoptosis by in-situ TUNEL assay and DNA fragmentation analysis; format: cell-based, rat; conditions: 72 hours in DM
# Protocol: TUNEL analysis was performed using ApopTag Flurescein In situ Apoptosis Detection kit (Intergen, Purchase, N.Y.). The results are given in FIG. 2c where arrows indicate TUNEL positive cells.
# Once cells undergo apoptosis, the DNA is digested into fragments diferring by 180-200 bp by endonuclease. […] DNA fragmentation aiming to identify the DNA laddering pattern was performed as follows. […] The cell lysates thus obtained were treated with 50 μg/ml RNase A at 37° C. for 2 hours and then with 500 μg/ml proteinase K at 55° C. for 2 hours. DNA was extracted by a phenol/chloroform method and precipitated in 70% (v/v) isopropanol. After being centrifuged at 15,000 rpm for 15 min, the precipitates were dissolved in a TE buffer (10 mM Tris-HCl (pH 8.0), 1 mM EDTA).
# myogenin and MRF4 = assay: Western blot of myogenic markers myogenin and MRF4; format: cell-based, rat
# Protocol: In addition, the protein expression levels of the myogenin and MRF4, early and late myogenic markers, were determined by Western blot analysis. To this end, myoblast extracts treated with the drugs were separated on SDS-PAGE and transferred onto a nitrocellulose membrane which was then blocked and reacted with predetermined primary antibodies (polyclonal myogenic antibody and polyclonal MRF4 antibody (Santa Cruz, Calif., USA) and then with a secondary antibody (anti-rabbit IgG-HRP conjugate with a chemiluminescent reactive enzyme able to detect the primary antibodies) (Santa Cruz, Calif., USA). Finally, the specimens were detected by enhanced ECL-plus chemiluminescence (Amersham Pharmacia Biotech, Piscataway, N.J., USA). Non-myogenic β-actin protein was used as a loading control.
# calcineurin = assay: Calcineurin phosphatase activity in H9c2 myoblasts (BioMol Quantizyme assay); conditions: for influence on basal calcineurin phosphatase activity / concentration at which maximal inhibitory effect on the increased calcineurin phosphatase activity was observed: H9c2 myoblasts; for inhibition of calcineurin phosphatase activity induced during muscle differentiation: H9c2 myoblasts in DM; for concentration at which maximal inhibitory effect on the increased calcineurin phosphatase activity was observed: activity induced by DM (2 days) and PE (12 h)
# transplanted myoblasts = conditions: cited from earlier work
# Bax [2] = assay: Western blot of apoptosis-accelerating protein Bax; format: cell-based, rat; conditions: DM; 1-10 μM CsA, 9 μM FK506, 200 nM ascomycin
# Source text: The results are shown in the upper part of FIG. 6a. β-actin is used as a loading control.
# After being scanned, the Western blot analysis bands were quantified by Bio-Rad imaging densitometer. The results are shown in the lower part of FIG. 6a. In the histograms, the bars express the Bax levels of the samples as mean±standard deviation values of the fold numbers compared to those of the control.
# [3] = tested on: mitochondria membrane potential; assay: Mitochondria membrane potential by DiOC6[3] flow cytometry; format: cell-based; conditions: 48 hours in DM; 1-10 μM CsA, 9 μM FK506, 200 nM ascomycin
# Protocol: H9c2 myoblasts cultured in PM and in DM in the absence of the drugs were measured for Δψm (control). In the FACS plots of FIG. 6b, the second peaks and the first peaks represent viable cells with high DiOC6[3] contents and dead cells with DiOC6[3]. Numerals mean percentages of the myoblasts with decreased Δψm.
# [4] = tested on: H9c2 rat cardiac myoblasts; assay: Morphological observation of muscle differentiation of myoblasts in DM; format: cell-based; conditions: 72 hours in DM
# Protocol: As a control, myoblasts were cultured in the absence of the drugs. Before use, the myoblasts were cultured to a cell confluency of about 70%.
# H9c2 cardiac myoblasts = assay: Cell cycle and apoptosis (sub-G0/G1) by propidium iodide FACS; format: cell-based, rat; conditions: DM 72 h
# Source text: Using 20,000 cells obtained from each of the cultures, measurements were made of percentages of cells in each phase of the cell cycle (G0/G1, S and G2/M) and percentages of cells in sub-G0/G1 aliquots (that is, apoptotic cells).
# ROS [5] = assay: Cellular ROS level by DCF flow cytometry (FACS); format: cell-based, rat; conditions: 10 μM, 24 hours in DM
# Protocol: H9c2 myoblasts were cultured for 24 hours in PM and in DM, and then in the presence of 10 μM DCF (2′,7′-dichlorofluorescein). After being harvested, the cells were washed once with PBS and resuspended in […] of PBS. The cellular levels of ROS generated were measured by flow cytometry (FACS), there values were regarded as controls. […] ROS levels were analyzed by FACS. […] ROS levels were measure as the above. The results are given in FIG. 5a where numerals indicate mean±standard deviation values of the ROS levels in the cells.
# H9c2 myoblasts [6] = assay: Effect of antioxidants on muscle differentiation (morphology); format: cell-based, rat; conditions: 5 days in DM; 0.4 mM DFOM, 2000 units/ml catalase, 10 mM Tiron
# Protocol: H9c2 myoblasts were cultured for 5 days in DM containing 0.4 mM of DFOM, 2000 units/ml of catalase, 10 mM of Tiron (4,5-dihydroxy-1,3-benzene-disulfonic acid) to induce differentiation, during which morphological changes were observed. The control is the myoblasts which were induced to differentiate in the absence of […].
# ROS [7] = assay: ROS content of CypA-transfected cells in DM with or without CsA (DCF FACS); format: cell-based, rat; conditions: DM containing no CsA or 10 μM CsA
# Protocol: These transfected cells were grown at 37° C. in the presence of 10 μM DCF, washed with PBS, resuspended in […] of PBS, and measured for ROS content by FACS analysis.
# H9c2 myoblasts [8] = assay: Survival and morphology of CypA-transfected cells exposed to CsA or H2O2; format: cell-based, rat; conditions: 10 μM CsA 72 h in DM; for protection from CsA- or H2O2-induced apoptotic cell death: 300 μM H2O2 12 h in DMEM/F-12
# Protocol: Separately, the cells were exposed to 300 μM H2O2 for 12 hours in DMEM/F-12. […] Here, % cell survival is obtained by dividing […].
# Bax [9] = assay: Bax expression in CypA-transfected cells exposed to CsA or H2O2 (Western blot); format: cell-based, rat; conditions: exposed to CsA; similar results with H2O2
# Source text: In the histograms of FIG. 7f, bars express the Bax levels in the samples as percentages compared to the mock-transfected cells.
# H9c2 myoblasts [10] = assay: Muscle differentiation of CypA-transfected cells in DM (morphology, time required); format: cell-based, rat; conditions: for muscle differentiation in DM: transfected H9c2 cells, no CsA; for time required for muscle differentiation: transfected H9c2 cells in DM, mock control 4-5 days
# Protocol: To determine the role of CypA, that is, PPIase, in muscle differentiation, time periods required for the complete differentiation of the three CypA gene-transfected cells, CypA/wt, CypA/W121F and CypA/R55A were measured while they were cultured in DM. In addition, their morphological changes were observed when they were completely differentiated.
# PPIase activity = conditions: cited from earlier work
molecule,measurement,setting,value
"C=CC[C@@H]1/C=C(\C)C[C@H](C)C[C@H](OC)[C@H]2O[C@@](O)(C(=O)C(=O)N3CCCC[C@H]3C(=O)O[C@H](/C(C)=C/[C@@H]3CC[C@@H](O)[C@H](OC)C3)[C@H](C)[C@@H](O)CC1=O)[C@H](C)C[C@@H]2OC [FK506, tacrolimus]","apoptosis (TUNEL, DNA laddering)",H9c2 myoblasts [1],not related to apoptosis
same,myogenin and MRF4 protein expression,"myogenin and MRF4; FK506, ascomycin in DM",no influence
same,influence on basal calcineurin phosphatase activity,calcineurin,no influence
same,inhibition of calcineurin phosphatase activity induced during muscle differentiation,calcineurin,completely inhibit
same,concentration at which maximal inhibitory effect on the increased calcineurin phosphatase activity was observed,calcineurin,1 µM
same,success rate of myoblast transplantation,transplanted myoblasts; clinical trials and animal model studies,≥ 95%
same,Bax expression,Bax [2],do not affect
same,mitochondria membrane potential (Δψm),[3],not observed
same,morphological changes during muscle differentiation,[4],no morphological differences
same,% Apoptosis (sub-G0/G1 fraction),H9c2 cardiac myoblasts; FK506 9 μM,11 ± 3%
same,% G0/G1,H9c2 cardiac myoblasts; FK506 9 μM,83 ± 5%
same,% G2/M,H9c2 cardiac myoblasts; FK506 9 μM,4 ± 1%
same,% S,H9c2 cardiac myoblasts; FK506 9 μM,4 ± 1%
C/C=C/C[C@@H](C)[C@@H](O)[C@H]1C(=O)N[C@@H](CC)C(=O)N(C)CC(=O)N(C)[C@@H]([C@@H](C)CC)C(=O)N[C@@H](C(C)C)C(=O)N(C)[C@@H](CC(C)C)C(=O)N[C@@H](C)C(=O)N[C@H](C)C(=O)N(C)[C@@H](CC(C)C)C(=O)N(C)[C@@H](CC(C)C)C(=O)N(C)[C@@H](C(C)C)C(=O)N1C [SDZ NIM811],"apoptosis (TUNEL, DNA laddering)",H9c2 myoblasts [1],dose dependent
same,myogenin and MRF4 protein expression,"myogenin and MRF4; 1 μM, DM",partial suppression
same,myogenin and MRF4 protein expression,"myogenin and MRF4; concentrations higher than 1 μM, DM",complete suppression
same,ROS level (mean±standard deviation),ROS [5],634±20
same,morphological changes during muscle differentiation,[4],blocks the myoblast differentiation
"O=S(=O)(O)c1cc(O)c(O)c(S(=O)(=O)O)c1 [Tiron, 4,5-dihydroxy-1,3-benzene-disulfonic acid]",effect on muscle differentiation,H9c2 myoblasts [6],blocking activity
"CypA/R55A: mutated rat CypA with alanine instead of arginine at position 55, transfected into H9c2 myoblasts",ROS level,ROS [7],significantly increased ROS generation
same,protection from CsA- or H2O2-induced apoptotic cell death,H9c2 myoblasts [8],increases ROS-induced apoptosis
same,Bax expression,Bax [9],increased Bax expression
same,muscle differentiation in DM,H9c2 myoblasts [10],no traces of differentiation
same,PPIase activity compared to the wild type protein,PPIase activity,one thousandth
CC[C@@H]1/C=C(\C)C[C@H](C)C[C@H](OC)[C@H]2O[C@@](O)(C(=O)C(=O)N3CCCC[C@H]3C(=O)O[C@H](/C(C)=C/[C@@H]3CC[C@@H](O)[C@H](OC)C3)[C@H](C)[C@@H](O)CC1=O)[C@H](C)C[C@@H]2OC [ascomycin],"apoptosis (TUNEL, DNA laddering)",H9c2 myoblasts [1],not related to apoptosis
same,myogenin and MRF4 protein expression,"myogenin and MRF4; FK506, ascomycin in DM",no influence
same,influence on basal calcineurin phosphatase activity,calcineurin,no influence
same,inhibition of calcineurin phosphatase activity induced during muscle differentiation,calcineurin,completely inhibit
same,concentration at which maximal inhibitory effect on the increased calcineurin phosphatase activity was observed,calcineurin,0.02 µM
same,Bax expression,Bax [2],do not affect
same,mitochondria membrane potential (Δψm),[3],not observed
same,morphological changes during muscle differentiation,[4],no morphological differences
same,% Apoptosis (sub-G0/G1 fraction),H9c2 cardiac myoblasts; Ascomycin 200 nM,10 ± 3%
same,% G0/G1,H9c2 cardiac myoblasts; Ascomycin 200 nM,85 ± 3%
same,% G2/M,H9c2 cardiac myoblasts; Ascomycin 200 nM,4 ± 1%
same,% S,H9c2 cardiac myoblasts; Ascomycin 200 nM,2 ± 1%
"CC(=O)N(O)CCCCCNC(=O)CCC(=O)N(O)CCCCCNC(=O)CCC(=O)N(O)CCCCCN [DFOM, deferoxamine mesylate]",effect on muscle differentiation,H9c2 myoblasts [6],blocking activity
O=P1(N(CCCl)CCCl)NCCCO1 (stereo not shown) [cyclophosphamide],success of allogenic myoblast transplantation,transplanted myoblasts; in vivo,did not increase the survival
CypA/wt: wild type rat brain CypA gene transfected into and overexpressed in H9c2 rat cardiac myoblasts,ROS level,ROS [7],reduced the ROS level
same,protection from differentiation blockage,H9c2 myoblasts [8],not from differentiation blockage
same,protection from CsA- or H2O2-induced apoptotic cell death,H9c2 myoblasts [8],protect cells
same,Bax expression,Bax [9],inhibited Bax expression
same,time required for muscle differentiation,H9c2 myoblasts [10],8 to 9 days
same,muscle differentiation in DM,H9c2 myoblasts [10],undergo muscle differentiation
"CypA/W121F: mutated rat CypA with phenylalanine instead of tryptophan at position 121, transfected into H9c2 myoblasts",ROS level,ROS [7],removed a greater amount of ROS than did CypA/wt
same,protection from differentiation blockage,H9c2 myoblasts [8],not from differentiation blockage
same,protection from CsA- or H2O2-induced apoptotic cell death,H9c2 myoblasts [8],protect cells
same,Bax expression,Bax [9],inhibited Bax expression
same,time required for muscle differentiation,H9c2 myoblasts [10],14 to 15 days
same,muscle differentiation in DM,H9c2 myoblasts [10],undergo muscle differentiation
same,PPIase activity compared to the wild type protein,PPIase activity,half
B1,effect on muscle differentiation,H9c2 myoblasts [6],blocking activity
